{"source": "paper PMC12951562", "about": "“SH2scan: Mapping SH2 Domain-Ligand Binding Selectivity for Inhibitors and Degraders” (Journal of Medicinal Chemistry, 2026)", "test_in_all_cases": "biochemical", "format_in_all_cases": "binding", "key": {"SHF": {"target": "T1, SHF (Homo sapiens, UniProt Q7M4L6)", "T1 construct": "made in house; host or cells: HEK293 (transient transfection), unpurified extract", "T1 sequence (Q7M4L6 1-423)": "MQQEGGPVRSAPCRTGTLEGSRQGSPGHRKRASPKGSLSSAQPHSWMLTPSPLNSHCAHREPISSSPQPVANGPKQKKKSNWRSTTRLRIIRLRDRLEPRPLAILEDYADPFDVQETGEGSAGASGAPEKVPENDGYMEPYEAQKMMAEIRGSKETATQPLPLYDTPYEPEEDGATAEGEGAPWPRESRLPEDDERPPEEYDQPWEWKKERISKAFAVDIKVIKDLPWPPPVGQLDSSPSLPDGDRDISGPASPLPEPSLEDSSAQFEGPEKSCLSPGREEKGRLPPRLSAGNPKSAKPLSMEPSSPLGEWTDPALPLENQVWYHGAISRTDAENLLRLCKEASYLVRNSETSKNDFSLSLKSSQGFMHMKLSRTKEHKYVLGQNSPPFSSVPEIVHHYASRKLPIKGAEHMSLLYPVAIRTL"}, "PLCG2(SH2dom.C-term.)": {"target": "T2, PLCG2(SH2dom.C-term.) (Homo sapiens, UniProt P16885)", "T2 construct": "SH2dom.C-term. denotes SH2 domain closest to C-terminus of protein; made in house; host or cells: HEK293 (transient transfection, unpurified extract)", "T2 sequence (P16885 646-735 limits assumed)": "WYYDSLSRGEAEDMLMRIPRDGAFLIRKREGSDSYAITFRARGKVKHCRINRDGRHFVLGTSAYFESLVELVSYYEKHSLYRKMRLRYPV"}, "SHC1": {"target": "T3, SHC1 (Homo sapiens, UniProt P29353)", "T3 construct": "made in house; host or cells: HEK293 (transient transfection), unpurified extract", "T3 sequence (P29353 1-583)": "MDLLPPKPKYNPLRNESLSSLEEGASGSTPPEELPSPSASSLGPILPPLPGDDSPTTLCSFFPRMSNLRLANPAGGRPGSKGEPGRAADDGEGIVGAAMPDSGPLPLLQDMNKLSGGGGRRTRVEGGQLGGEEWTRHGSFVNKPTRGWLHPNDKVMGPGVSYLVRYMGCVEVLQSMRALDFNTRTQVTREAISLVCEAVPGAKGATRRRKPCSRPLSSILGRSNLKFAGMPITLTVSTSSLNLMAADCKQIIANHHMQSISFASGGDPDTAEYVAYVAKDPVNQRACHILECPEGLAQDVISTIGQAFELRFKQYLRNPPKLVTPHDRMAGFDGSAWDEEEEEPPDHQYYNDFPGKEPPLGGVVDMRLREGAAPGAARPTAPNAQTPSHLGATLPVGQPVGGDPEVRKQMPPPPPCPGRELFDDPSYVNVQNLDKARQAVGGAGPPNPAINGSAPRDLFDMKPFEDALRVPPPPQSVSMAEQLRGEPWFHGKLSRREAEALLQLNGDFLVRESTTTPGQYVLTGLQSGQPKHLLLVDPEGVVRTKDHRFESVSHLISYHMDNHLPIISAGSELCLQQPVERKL"}, "SHC4": {"target": "T4, SHC4 (Homo sapiens, UniProt Q6S5L8)", "T4 construct": "made in house; host or cells: HEK293 (transient transfection), unpurified extract", "T4 sequence (Q6S5L8 1-630)": "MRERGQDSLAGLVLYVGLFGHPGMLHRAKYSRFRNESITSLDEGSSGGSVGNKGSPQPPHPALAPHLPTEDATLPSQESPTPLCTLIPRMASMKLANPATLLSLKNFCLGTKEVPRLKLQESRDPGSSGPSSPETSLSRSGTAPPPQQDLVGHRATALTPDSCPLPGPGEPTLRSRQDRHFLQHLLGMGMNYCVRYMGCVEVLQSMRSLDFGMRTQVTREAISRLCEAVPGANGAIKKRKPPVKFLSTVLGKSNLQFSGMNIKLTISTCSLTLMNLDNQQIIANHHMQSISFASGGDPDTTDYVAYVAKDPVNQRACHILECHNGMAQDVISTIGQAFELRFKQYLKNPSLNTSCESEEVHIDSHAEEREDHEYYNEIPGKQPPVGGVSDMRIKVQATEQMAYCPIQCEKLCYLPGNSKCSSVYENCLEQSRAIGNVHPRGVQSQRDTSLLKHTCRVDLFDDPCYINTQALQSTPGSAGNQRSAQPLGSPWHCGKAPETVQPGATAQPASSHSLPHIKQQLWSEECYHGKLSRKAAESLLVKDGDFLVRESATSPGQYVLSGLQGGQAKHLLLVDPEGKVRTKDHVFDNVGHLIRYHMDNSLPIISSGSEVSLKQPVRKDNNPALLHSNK"}, "SHC2": {"target": "T5, SHC2 (Homo sapiens, UniProt P98077)", "T5 construct": "made in house; host or cells: HEK293 (transient transfection), unpurified extract", "T5 sequence (P98077 1-582)": "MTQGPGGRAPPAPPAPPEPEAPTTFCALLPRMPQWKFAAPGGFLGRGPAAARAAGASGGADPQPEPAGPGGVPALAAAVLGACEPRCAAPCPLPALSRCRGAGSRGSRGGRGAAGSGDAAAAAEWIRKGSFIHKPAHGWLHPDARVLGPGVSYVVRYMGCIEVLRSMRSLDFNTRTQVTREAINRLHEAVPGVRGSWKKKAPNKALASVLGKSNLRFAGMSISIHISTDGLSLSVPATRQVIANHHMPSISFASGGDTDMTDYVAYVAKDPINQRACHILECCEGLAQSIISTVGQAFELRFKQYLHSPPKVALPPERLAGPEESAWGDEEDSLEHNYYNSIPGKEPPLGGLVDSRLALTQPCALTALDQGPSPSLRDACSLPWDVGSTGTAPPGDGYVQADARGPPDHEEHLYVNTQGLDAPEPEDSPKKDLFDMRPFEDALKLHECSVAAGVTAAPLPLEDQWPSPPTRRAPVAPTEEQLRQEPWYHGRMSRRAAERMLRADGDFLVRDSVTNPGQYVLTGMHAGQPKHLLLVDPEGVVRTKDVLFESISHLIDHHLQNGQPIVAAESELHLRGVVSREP"}, "SHC3": {"target": "T6, SHC3 (Homo sapiens, UniProt Q92529)", "T6 construct": "made in house; host or cells: HEK293 (transient transfection), unpurified extract", "T6 sequence (Q92529 1-594)": "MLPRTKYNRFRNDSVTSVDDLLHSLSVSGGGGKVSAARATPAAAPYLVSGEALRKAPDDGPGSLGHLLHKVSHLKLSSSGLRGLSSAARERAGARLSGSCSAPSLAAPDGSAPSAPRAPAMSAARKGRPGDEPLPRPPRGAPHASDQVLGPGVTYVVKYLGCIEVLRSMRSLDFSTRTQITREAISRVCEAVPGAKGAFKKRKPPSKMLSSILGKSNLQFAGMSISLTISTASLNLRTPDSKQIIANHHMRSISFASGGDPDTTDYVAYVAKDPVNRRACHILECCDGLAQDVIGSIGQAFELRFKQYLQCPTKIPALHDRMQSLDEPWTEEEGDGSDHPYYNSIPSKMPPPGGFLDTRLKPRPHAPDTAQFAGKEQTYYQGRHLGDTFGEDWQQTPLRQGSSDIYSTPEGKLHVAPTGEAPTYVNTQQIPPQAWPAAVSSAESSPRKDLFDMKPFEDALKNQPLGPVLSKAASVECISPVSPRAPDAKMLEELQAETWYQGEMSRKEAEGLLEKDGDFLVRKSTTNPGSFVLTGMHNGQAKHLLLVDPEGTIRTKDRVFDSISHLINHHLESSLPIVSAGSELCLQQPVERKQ"}, "SOCS2": {"target": "T7, SOCS2 (Homo sapiens, UniProt O14508)", "T7 construct": "made in house; host or cells: HEK293 (transient transfection), unpurified extract", "T7 sequence (O14508 1-198)": "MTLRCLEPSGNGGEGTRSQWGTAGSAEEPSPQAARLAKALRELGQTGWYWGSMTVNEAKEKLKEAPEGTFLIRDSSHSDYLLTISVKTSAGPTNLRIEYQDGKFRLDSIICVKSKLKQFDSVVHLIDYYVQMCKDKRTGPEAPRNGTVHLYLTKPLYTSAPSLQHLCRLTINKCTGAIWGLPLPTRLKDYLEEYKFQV"}, "SOCS7": {"target": "T8, SOCS7 (Homo sapiens, UniProt O14512)", "T8 construct": "made in house; host or cells: HEK293 (transient transfection), unpurified extract", "T8 sequence (O14512 1-581)": "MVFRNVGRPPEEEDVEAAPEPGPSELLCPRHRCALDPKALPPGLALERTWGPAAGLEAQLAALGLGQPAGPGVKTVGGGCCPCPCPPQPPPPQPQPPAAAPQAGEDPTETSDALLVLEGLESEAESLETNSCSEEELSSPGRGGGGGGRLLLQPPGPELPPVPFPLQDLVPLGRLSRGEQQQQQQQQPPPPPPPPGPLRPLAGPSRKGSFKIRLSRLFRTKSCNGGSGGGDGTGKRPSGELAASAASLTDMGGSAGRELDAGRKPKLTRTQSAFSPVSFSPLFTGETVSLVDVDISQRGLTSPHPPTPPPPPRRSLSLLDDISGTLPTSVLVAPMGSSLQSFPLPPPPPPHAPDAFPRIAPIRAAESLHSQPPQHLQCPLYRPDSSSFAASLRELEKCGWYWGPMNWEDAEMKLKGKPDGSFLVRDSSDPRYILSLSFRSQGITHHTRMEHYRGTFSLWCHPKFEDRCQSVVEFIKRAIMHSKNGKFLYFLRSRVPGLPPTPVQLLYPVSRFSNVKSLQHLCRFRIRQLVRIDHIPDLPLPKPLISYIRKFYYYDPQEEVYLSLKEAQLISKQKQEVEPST"}, "SOCS6": {"target": "T9, SOCS6 (Homo sapiens, UniProt O14544)", "T9 construct": "made in house; host or cells: HEK293 (transient transfection), unpurified extract", "T9 sequence (O14544 1-535)": "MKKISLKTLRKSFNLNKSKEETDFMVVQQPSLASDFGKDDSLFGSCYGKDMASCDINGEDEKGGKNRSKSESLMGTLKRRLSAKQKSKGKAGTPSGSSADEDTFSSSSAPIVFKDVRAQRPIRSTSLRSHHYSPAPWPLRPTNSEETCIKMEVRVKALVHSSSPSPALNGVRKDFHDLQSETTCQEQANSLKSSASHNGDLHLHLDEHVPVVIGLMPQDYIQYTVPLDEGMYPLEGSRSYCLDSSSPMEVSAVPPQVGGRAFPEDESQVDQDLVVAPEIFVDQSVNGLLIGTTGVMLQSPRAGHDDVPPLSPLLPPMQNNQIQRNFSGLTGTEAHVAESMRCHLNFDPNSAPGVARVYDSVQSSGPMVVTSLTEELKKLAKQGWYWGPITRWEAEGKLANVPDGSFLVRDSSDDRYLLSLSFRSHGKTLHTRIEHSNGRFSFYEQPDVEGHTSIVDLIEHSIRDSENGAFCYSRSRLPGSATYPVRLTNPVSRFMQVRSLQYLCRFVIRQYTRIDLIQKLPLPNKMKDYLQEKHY"}}, "note": "Non-standard residues stand in square brackets, D forms with d. Residues, ends and D or L forms follow the SMILES beside them. pY = N[C@@H](Cc1ccc(OP(=O)(O)O)cc1)C(=O)O", "data": [{"smiles": "CC[C@H](C)[C@H](NC(=O)[C@@H](NC(=O)[C@H](Cc1ccc(OP(=O)(O)O)cc1)NC(=O)[C@H](CO)NC(=O)[C@H](CCCNC(=N)N)NC(=O)[C@@H](NC(=O)[C@H](CO)NC(=O)[C@H](CCC(=O)O)NC(=O)[C@H](CCCCN)NC(=O)[C@H](CCCCN)NC(=O)[C@H](CCCCN)NC(=O)[C@H](CCCCN)NC(C)=O)[C@@H](C)O)C(C)C)C(=O)N[C@@H](CC(C)C)C(=O)N[C@@H](CO)C(=O)N[C@@H](Cc1ccccc1)C(=O)N[C@@H](CCC(=O)O)C(=O)N[C@@H](CC(N)=O)C(=O)N[C@@H](CC(N)=O)C(=O)NCC(N)=O", "note": "(Ac-KKKKESTRS[pY]VILSFENNG-NH2)", "values": [{"measurement": "Kd", "setting": "SHF", "result": "1.47 ± 0.88", "unit": "µM"}, {"measurement": "Kd", "setting": "PLCG2(SH2dom.C-term.)", "result": "0.0109 ± 0.00709", "unit": "µM"}]}, {"smiles": "CC(=O)N[C@@H](CCC(=O)O)C(=O)N[C@@H](CC(N)=O)C(=O)N[C@@H](C)C(=O)N[C@@H](CCC(=O)O)C(=O)N[C@@H](Cc1ccc(OP(=O)(O)O)cc1)C(=O)N[C@@H](CC(C)C)C(=O)N[C@@H](CCCNC(=N)N)C(=O)N[C@H](C(=O)N[C@@H](C)C(N)=O)C(C)C", "note": "[Ac-ENAEpYLRVA-NH2] (Ac-ENAE[pY]LRVA-NH2)", "values": [{"measurement": "Kd", "setting": "SHC1", "result": "11 ± 1.26", "unit": "µM"}, {"measurement": "Kd", "setting": "SHC4", "result": "6.63 ± 0.773", "unit": "µM"}, {"measurement": "Kd", "setting": "SHC2", "result": "4.39 ± 0.413", "unit": "µM"}, {"measurement": "Kd", "setting": "SHC3", "result": "3.78 ± 0.472", "unit": "µM"}]}, {"smiles": "CC[C@H](C)[C@H](NC(=O)[C@H](Cc1ccc(O)cc1)NC(=O)[C@@H](NC(=O)[C@H](Cc1ccc(OP(=O)(O)O)cc1)NC(=O)[C@H](CC(N)=O)NC(=O)[C@H](CC(N)=O)NC(=O)CNC(=O)[C@H](CC(N)=O)NC(C)=O)C(C)C)C(=O)N[C@@H](CC(=O)O)C(=O)N1CCC[C@H]1C(=O)N[C@H](C(N)=O)[C@@H](C)O", "note": "[Ac-NGNNpYVYIDPT-NH2]", "values": [{"measurement": "Kd", "setting": "SOCS2", "result": "4.2 ± 0.739", "unit": "µM"}, {"measurement": "Kd", "setting": "SOCS7", "result": "11.7 ± 0.822", "unit": "µM"}, {"measurement": "Kd", "setting": "SOCS6", "result": "0.0206 ± 0.00433", "unit": "µM"}]}]}
